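Dose response: 5 concentrations. Exposure: 48 h. Format: 96-well plates. Endpoint: linear interpolation; highest concentration if not reached. At the TGI there is no net growth.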
Key:
Assay in all cases: DTP human tumour cell line panel, 48 h
SR leukemia = tested on: SR leukemia
HOP-62 NSCLC = tested on: HOP-62 NSCLC
SF-295 CNS = tested on: SF-295 CNS
SF-268 CNS = tested on: SF-268 CNS
A549 NSCLC = tested on: A549 NSCLC
OVCAR-8 ovarian = tested on: OVCAR-8 ovarian
OVCAR-4 ovarian = tested on: OVCAR-4 ovarian
LOX IMVI melanoma = tested on: LOX IMVI melanoma
KM12 colon = tested on: KM12 colon
MALME-3M melanoma = tested on: MALME-3M melanoma
UACC-257 melanoma = tested on: UACC-257 melanoma
SK-MEL-28 melanoma = tested on: SK-MEL-28 melanoma
DU-145 prostate = tested on: DU-145 prostate
SW-620 colon = tested on: SW-620 colon
HL-60(TB) leukemia = tested on: HL-60(TB) leukemia
OVCAR-5 ovarian = tested on: OVCAR-5 ovarian
HOP-92 NSCLC = tested on: HOP-92 NSCLC
SK-MEL-2 melanoma = tested on: SK-MEL-2 melanoma
NCI-H460 lung = tested on: NCI-H460 lung
HCC-2998 colon = tested on: HCC-2998 colon

SMILES	TGI (SR leukemia)	TGI (HOP-62 NSCLC)	TGI (SF-295 CNS)	TGI (SF-268 CNS)	TGI (A549 NSCLC)	TGI (OVCAR-8 ovarian)	TGI (OVCAR-4 ovarian)	TGI (LOX IMVI melanoma)	TGI (KM12 colon)	TGI (MALME-3M melanoma)	TGI (UACC-257 melanoma)	TGI (SK-MEL-28 melanoma)	TGI (DU-145 prostate)	TGI (SW-620 colon)	TGI (HL-60(TB) leukemia)	TGI (OVCAR-5 ovarian)	TGI (HOP-92 NSCLC)	TGI (SK-MEL-2 melanoma)	TGI (NCI-H460 lung)	TGI (HCC-2998 colon)
O=C(COC(c1ccc(F)cc1)c1ccc(F)cc1)N1CCN(CCCc2ccccc2)CC1	18.6 µM	19.4 µM	13 µM	16.4 µM	15.2 µM	14.6 µM	12.6 µM	16.2 µM	15.9 µM	17.4 µM	11.3 µM	> 100 µM	14.5 µM	> 100 µM	14.1 µM	14.7 µM	8.02 µM	15.4 µM	13.5 µM	13 µM
C=CC1(c2ccc(Cl)c(Cl)c2)OCCO1	> 100 µM	22.8 µM	> 100 µM	> 100 µM	> 100 µM	> 100 µM	> 100 µM	> 100 µM	> 100 µM	> 100 µM	> 100 µM	> 100 µM	> 100 µM	> 100 µM	67.5 µM	> 100 µM	> 100 µM	> 100 µM	> 100 µM	> 100 µM
NC(=O)ON=C1CCN(Cc2ccccc2)CC1	> 100 µM	> 100 µM	> 100 µM	> 100 µM	> 100 µM	> 100 µM	> 100 µM	> 100 µM	> 100 µM	> 100 µM	> 100 µM	> 100 µM	> 100 µM	> 100 µM	> 100 µM	> 100 µM	> 100 µM	> 100 µM	> 100 µM	> 100 µM
COC(=O)C1=C(O)C(C(=O)OC)[C@]2(O)[C@H](C(=O)OC)[C@H]1C[C@@H](c1ccccc1OC)[C@H]2C(=O)OC (stereo not given in full)	7.04 µM	39.1 µM	25.6 µM	16.5 µM	21.7 µM	11.8 µM	31.3 µM	9.35 µM	21.9 µM	13.5 µM	> 51.6 µM	27.1 µM	26.2 µM	19.6 µM	10.5 µM	16.4 µM	15.7 µM	20.1 µM	> 41.8 µM	22.2 µM
COc1ccc2cc(-c3ccc(OC)c(OC)c3)c(=O)oc2c1	> 100 µM	> 100 µM	> 100 µM	> 100 µM	> 100 µM	> 100 µM	> 100 µM	> 100 µM	> 100 µM	> 100 µM	> 100 µM	> 100 µM	> 100 µM	> 100 µM	> 100 µM	> 100 µM	> 100 µM	> 100 µM	> 100 µM	> 100 µM
O=C(O)c1cnccc1-c1cc(=O)[nH]n1-c1ccccc1	> 100 µM	> 100 µM	> 63.8 µM	> 100 µM	> 100 µM	> 100 µM	> 100 µM	> 100 µM	> 100 µM	> 100 µM	> 100 µM	> 78.2 µM	> 100 µM	> 100 µM	> 87 µM	> 100 µM	> 100 µM	> 100 µM	> 100 µM	> 63.2 µM
C/C(=N/NC(=S)N1CCCCCC1)c1ccccc1O	4.57 µM	56.7 µM	> 100 µM	> 24.5 µM	> 100 µM	> 100 µM	> 33.9 µM	> 78.7 µM	> 53.7 µM	> 49.8 µM	30.9 µM	> 100 µM	> 69.4 µM	> 100 µM	7.8 µM	> 100 µM	> 100 µM	> 100 µM	25.2 µM	> 42.1 µM
C/C(Sc1ccccc1)=C1/CCCN(Cc2ccccc2)C1	35.7 µM	61.4 µM	50.9 µM	> 100 µM	> 100 µM	> 100 µM	> 100 µM	31.8 µM	98.2 µM	28.6 µM	44.6 µM	83 µM	> 100 µM	> 100 µM	32.6 µM	67.5 µM	51.9 µM	34 µM	96.1 µM	53.3 µM
C/C=C1/CN2CCC34C5=CC(=O)C(c6cc7c(cc6OC)N(C)C6=C(C(=O)OC)CC8(CC)CCCN9CCC67C98)=CC5=NC23CCC1C4C(=O)OC (stereo not given)	6.63 µM	31.5 µM	31.6 µM	33.1 µM	30.3 µM	30.2 µM	27.1 µM	31 µM	30.3 µM	28.6 µM	27.1 µM	31 µM	37.2 µM	21.8 µM	4.22 µM	16.8 µM	20.8 µM	30.6 µM	30.1 µM	29.5 µM
OCC1C(O)C(O)[C@@H]2SCCN12 (stereo not given in full)	> 100 µM	> 100 µM	> 100 µM	> 100 µM	> 100 µM	> 100 µM	> 100 µM	> 100 µM	> 100 µM	> 100 µM	> 100 µM	> 100 µM	> 100 µM	> 100 µM	> 100 µM	> 100 µM	> 100 µM	> 100 µM	> 100 µM	> 100 µM
CCOC(=O)c1ccc(-c2cccs2)n1C	> 100 µM	> 100 µM	> 100 µM	> 100 µM	> 100 µM	> 100 µM	> 100 µM	> 100 µM	> 100 µM	> 100 µM	> 100 µM	> 100 µM	> 100 µM	> 100 µM	> 100 µM	> 100 µM	> 94.8 µM	> 100 µM	> 100 µM	> 100 µM
CC(C)(C)OC(=O)N1C[C@H](CC(=O)OCc2ccccc2)C[C@H]1C(=O)OCC(Cl)(Cl)Cl	15.7 µM	> 50 µM	> 50 µM	> 50 µM	> 50 µM	> 50 µM	> 50 µM	> 50 µM	> 50 µM	25.3 µM	31.3 µM	> 50 µM	> 50 µM	> 50 µM	> 50 µM	> 50 µM	21.5 µM	23 µM	> 50 µM	45.3 µM
CCOC(=O)c1c(N2CCOCC2)[nH]c(=O)c(C(c2c(O)c(C(=O)OCC)c(N3CCOCC3)[nH]c2=O)C(C)C)c1O	> 100 µM	> 100 µM	> 100 µM	> 100 µM	> 100 µM	> 100 µM	> 100 µM	> 100 µM	> 100 µM	> 100 µM	> 100 µM	> 100 µM	> 100 µM	> 100 µM	> 100 µM	> 100 µM	> 100 µM	> 100 µM	> 100 µM	> 100 µM
C/C=C/C=C/C1=NN(c2cccc(S(=O)(=O)O)c2)C2(C1)C(Cl)C(=O)N2c1nc2ccccc2s1 (stereo not given)	> 54.3 µM	36.2 µM	31 µM	38.4 µM	28.3 µM	> 54.8 µM	29.2 µM	24.5 µM	27.3 µM	32.7 µM	33.5 µM	43.6 µM	26.2 µM	43.1 µM	33.1 µM	34.8 µM	48.2 µM	30.2 µM	31.6 µM	31.5 µM
CCOC(=O)c1c(Nc2ccccc2)sc2cccnc12	59.6 µM	> 81 µM	49.9 µM	64.1 µM	81.1 µM	64 µM	79.9 µM	44.6 µM	37.6 µM	53.4 µM	51.1 µM	63 µM	> 69.7 µM	> 100 µM	51.3 µM	79.4 µM	> 29.3 µM	49.5 µM	> 88.8 µM	77.8 µM
C/C(=N\N=C(\N)OB(F)F)c1ccccn1	> 100 µM	> 100 µM	> 100 µM	> 100 µM	> 100 µM	> 100 µM	> 100 µM	> 100 µM	> 100 µM	> 100 µM	> 100 µM	> 100 µM	> 100 µM	> 100 µM	> 100 µM	> 100 µM	85.7 µM	> 100 µM	> 100 µM	> 100 µM
COC(=O)/C=C1/OC(c2ccc(Br)cc2)=C(Br)C1=O	3.31 µM	17.5 µM	28.9 µM	17 µM	33.6 µM	10.5 µM	11.6 µM	8.4 µM	22.4 µM	21.5 µM	27.5 µM	27.2 µM	25.4 µM	7.49 µM	7.87 µM	12.5 µM	25.2 µM	24.8 µM	36.6 µM	18.6 µM
